# Measurements published in PMC7852560 (Neuropsychopharmacology, 2020).
# Values joined by “and” are separate entries in the source; they are usually repeats but may differ in a detail not shown here. Equal entries are not always repeated.
# How the values were obtained:
# in vivo = test: in vivo; set-up: species or system male C57Bl/6 mice
# Experimental: Microsomal stability assays were conducted by Cyprotex Ltd (Macclesfield, UK).
# Blood samples (approximately 60 µL; n=3 mice per time-point) were taken at 0.08, 0.25, 0.5, 1, 2, 4, 6 and 8 hrs. Immediately after collection of blood, brain samples were collected from the set of three mice at each time point. Plasma samples were separated by centrifugation of whole blood, while brain samples were homogenized in ice-cold phosphate buffer saline (pH 7.4). Total homogenate volume was three times the brain weight. Plasma and homogenates were stored below -70±10 °C until analysis. The extraction procedure for plasma/brain samples and the spiked plasma/brain calibration standards were identical. To a 25 µL volume of study sample (dilution factor applied to some samples) or spiked plasma/brain calibration standard, 100 µL of internal standard prepared in acetonitrile (Glipizide, 500 ng/mL) was added, except for blank where 100 µL of acetonitrile was added. […] Pharmacokinetic parameters were calculated using the non-compartmental analysis tool of Phoenix WinNonlin® (Version 7.0). Areas under the concentration time curve (AUC) values were calculated by linear trapezoidal rule.
# [1] = tested on: 44 different receptors, ion channels and enzymes; conditions: 1 µM
# Experimental: The screen assesses the selectivity of the compound on a diverse panel of targets that includes GPCRs, drug transporters, ion channels, nuclear receptors, kinases, and other non-kinase enzymes. The screen employs radioligand binding or enzyme assays for these 44 targets.
# For receptor assays, binding was calculated as percent inhibition of the binding of a radioactively labeled ligand specific for each target. For enzyme assays, the inhibition effect was calculated as percent inhibition of control enzyme activity. Tests were performed in duplicate, and results are averages of those two tests. See https://www.eurofinsdiscoveryservices.com.
# Male C57Bl/6J mice = test: Cannabinoid-induced tetrad; type: in vivo; conditions: 10 mg/kg i.p., 30 min prior
# Experimental: Male C57Bl/6J mice (PD > 70) were tested on the cannabinoid-induced tetrad, as previously described.
# (i.p.) before testing. The tetrad was performed (1) catalepsy, (2) locomotion, (3) temperature, and (4) analgesia. Catalepsy: time (s) spent immobile with front paws on a plastic rod (1.5cm diameter), at a height of 4.5-cm from the table, before adjusting abnormal posture (either front paws being removed from the bar, or back paws climbing onto bar). Locomotion: horizontal activity (cm) was immediately measured in an open field test, following catalepsy, for 15-min. in 1-min bins. Temperature: rectal temperature (°C) was measured immediately following open-field testing, using a thermometer with rectal probe (Labcorp, Fisher, Waltham, MA). Analgesia: latency (s) to withdraw tail from hot water bath (52 °C), to assess tail-flick antinociception, was completed immediately following temperature readings.
# C57Bl/6J mice = type: in vivo; conditions: 10 mg/kg i.p., 30 min before test, compared to vehicle
# Description: (i.p.) before testing. The EPM was composed of 4 opaque-white arms (2 opposite arms closed, 2 opposite arms open), arranged in a plus shape, with an open center. The dimensions were as follows; maze elevation (38.7cm), open arm (L:30.5 cm, W:5 cm, H:0 cm), closed arm (L:30.5 cm, W:5 cm, H:15.2 cm) and center (5 cm x 5 cm). The experiment mouse was placed in the center of the maze and allowed to freely explore the maze for 8-min (50lux), while being tracked with an overhead camera. Open and closed arm times were recorded and collected by Biobserve Viewer3 software. The percentage of time spent in the open arms as compared to closed arms and center time was calculated and expressed as a percent of time spent in the open or closed arms of the maze.
# GluN1KD mice = test: Open-field test in GluN1KD mice; conditions: ABM300 10 mg/kg, OLA 1 mg/kg i.p., 30 min before test
# [2] = male, C57Bl/6, mouse, ip, 10 mg/kg
smiles,measurement,setting,value
"CCc1c(-c2nnc(Nc3ccccc3)o2)[nH]c2ccc(Cl)cc12 [ABM300, 5-(5-chloro-3-ethyl-1H-indol-2-yl)-N-phenyl-1,3,4-oxadiazol-2-amine]",concentration at 30 min,"in vivo; male, C57Bl/6, mouse, 10 mg/kg i.p., at 30 min, read-out: brain concentration",374 ± 39 ng/mL
same,AUC(0-t),in vivo; [2],2050 ng·h/mL
same,Cmax,in vivo; [2],866 ng/mL and 412 ng/g
same,Tmax,"in vivo; male, C57Bl/6, mouse, ip, 10 mg/kg, Tmax",0.5 h
same,AUClast,"in vivo; mouse, ip, 10 mg/kg",1577.92 ng·h/g
same,half-life,"in vivo; mouse, ip, 10 mg/kg i.p., male C57Bl/6 mice",~2 h
same,binding to SafetyScreen44 targets,[1],did not display any significant binding
same,tetrad: catalepsy-induced immobility time,Male C57Bl/6J mice,no effect
same,tetrad: percent inhibition of locomotor activity (15 min),Male C57Bl/6J mice,no effect
same,tetrad: rectal temperature,Male C57Bl/6J mice,no effect
same,tetrad: tail withdrawal (% MPE),Male C57Bl/6J mice,no effect
same,time spent in the open arms (EPM),C57Bl/6J mice,did not affect
same,exaggerated stereotypic activity,GluN1KD mice,significantly reduced
same,novelty-induced hyperactivity (distance traveled),GluN1KD mice,decreases
same,rearing behavior (vertical exploration),GluN1KD mice,significantly reduced
